This experiment relates to P. falciparum 3D7 growth, pLDH absorbance. The experiment can be described thus: P. falciparum 3D7 growth inhibition, dose response, strain 3D7 (AID 2305).

By IC50 is commonly meant the concentration at which inhibition is half-maximal.

`CCCCCCN1CCCN(Cc2ccc(C(=O)Nc3ccc(C)c(F)c3)cc2)CC1` gave an IC50 of 330 nM.
The same measure for `N#Cc1ccc2c(c1)CCN(CCC1CCC(NC(=O)c3cc4cccc([N+](=O)[O-])c4[nH]3)CC1)C2` (configuration not stated): 680 nM; for `Cc1noc(C)c1-c1cccc(CNCc2cccc(-c3cccc(-c4nc5ccc(C(F)(F)F)cc5[nH]4)c3)c2)c1`: 460 nM; for `COc1cc2ccccc2c(OC)c1CNCCCCCCNCc1c(OC)cc2ccccc2c1OC`: 990 nM.
The figure for `Cc1c(CNCCCNc2cc(=O)c3ccccc3[nH]2)sc(C(F)=C(F)F)c1Br` is 840 nM; for `COCCNCc1nc(-c2ccc3c(Nc4ccc(Cl)cc4F)ccnc3c2)cs1` it is 1080 nM.
The figure for `CCCNCc1ccc(-c2ccc(CN(Cc3cccs3)C(=O)C3CCN(C)CC3)cc2)nc1` is 660 nM; for `O=C(O)c1ccc2c(c1)N(C(=O)CNCc1ccc(F)cc1)CC(=O)N2CCCc1ccccc1` it is 920 nM; for `Nc1nc(N)c2c(Oc3cccc4ccccc34)cccc2n1` it is 1010 nM.
The compound `CC(=O)Nc1ccc(Nc2c3ccccc3nc3ccccc23)cc1` registered a half-inhibitory concentration (IC50) of 1020 nM.
The same measure for `COc1ccc2nccc([C@@H](O)CN3CCC(NC(=O)c4ccc(Oc5ccccc5)cc4)CC3)c2c1`: 1380 nM; for `Cc1cccc2[nH]c(-c3cccc(-c4ccc(C(=O)NCc5nccn5C)cc4)c3)nc12`: 1320 nM.
`Cc1ccc(-n2[nH]c(C)c(N=Nc3cccc(-c4cccc(NC(=O)OC(C)(C)C)c4)c3O)c2=O)cc1C` gave an IC50 of 700 nM.
Compound `O=C(Nc1ccccc1O)c1ccc(S(=O)(=O)c2ccc(Cl)cc2)cc1` returned an IC50 of 1350 nM.
The figure for `CC(=O)c1ccc(S(=O)(=O)N2CCC(C(=O)Nc3ccccc3N3CCCC3)CC2)cc1` is 830 nM.
With `Cc1ccc(C2=NNC3(S2)C(=O)N(C)c2ccccc23)cc1` (configuration not stated), the IC50 is 1020 nM.
The figure for `C[C@H]1CN(Cc2cccc(-c3cc(CNC(=O)c4cccc(C(=O)c5ccc(Cl)c(Cl)c5)c4)ccc3F)c2)CCN1` is 1140 nM; for `N#Cc1ccccc1C1CCN(C2CCC(Nc3cc(-c4cccnc4)ccn3)CC2)CC1` (configuration not stated) it is 960 nM.
Compound `O=C1OC(c2ccccc2)(c2ccccc2)CN1CC1CCN(Cc2ccc(O)c(Cl)c2)CC1` had an IC50 of 820 nM.
The figure for `Cc1nc(N)nc(N)c1OCc1ccc(Cl)c(Cl)c1` is 130 nM; for `C=CCOC(=O)N1CCC(CNCc2cccc(-c3cccc(-c4nc5c(C)cccc5[nH]4)c3)c2)C1` (configuration not stated) it is 110 nM; for `COc1cc(NC(=O)/C=C/c2cccc3ccoc23)ccc1OCCN(C(C)C)C(C)C` it is 1040 nM.
The figure for `CCN(CC)C(=S)N=Nc1c(O)[nH]c2c(C)cccc12` is 860 nM.
The same measure for `CCN1CCN(c2cc(C)c3cc(NC(=O)c4cccc(Cl)c4)ccc3n2)CC1`: 770 nM; for `O=C(Nc1ccc(Oc2ccccc2)cc1)N[C@@H](Cc1ccc(O)cc1)C(=O)NC1CCN(Cc2ccc(O)c([N+](=O)[O-])c2)C1` (some centres not stated): 1510 nM; for `Cc1ccc(NC(=O)C2CCC2)cc1-c1ccc(C(=O)NCC2CC2)cc1`: 740 nM.
The compound `Cc1cc(N[C@@H](Cc2ccccc2)C(=O)Nc2ccccc2)nc(NCCc2ccccc2)n1` came in with an IC50 of 870 nM.
`Cc1ccc(Nc2nc(-c3ccccn3)cs2)nc1` yielded an IC50 of 750 nM.
The same measure for `CCOC(=O)c1ccc(NC(=O)Nc2cccc(-c3ccc(-c4nc5ccccc5[nH]4)cc3)c2)cc1`: 210 nM; for `COc1ccc2nccc([C@@H](O)CN3CCC(NCc4cc5ccccc5s4)CC3)c2c1`: 350 nM; for `Cc1cc(NCCc2ccccc2)nc(/N=C(\N)Nc2cccc(Cl)c2)n1`: 180 nM.
As for `COc1ccc(CNCc2ccc(-c3ccc(-c4nc5ccc(C(F)(F)F)cc5[nH]4)s3)cc2)cc1`, the IC50 was 170 nM.
On to `FC(F)(F)c1ccc2nc(-c3ccc(-c4ccc(CNCc5cnn(-c6ccccc6)n5)cc4)s3)[nH]c2c1`, for which the IC50 worked out at 460 nM.
The same measure for `CCN(CC)CCCSc1ccc(-c2ccc(SCCCN(CC)CC)cc2)cc1`: 1160 nM; for `Nc1nc(N)c2c(ccc3c2cnn3S(=O)(=O)N2CCCC2)n1`: 20 nM; for `O=C(Cc1ccc(NC(=O)c2ccc(O)c(-c3ccc(Cl)c(Cl)c3)c2)cc1)NCCc1ccc(Cl)c(Cl)c1`: 720 nM.
As to `CCc1cn2c3c(cc(C(=O)N[C@@H](Cc4ccccc4)[C@H](O)CNC4CCOCC4)cc13)N(CC(F)(F)F)S(=O)(=O)CC2`, the IC50 was 30 nM.
The same measure for `Cc1ccc(Nc2nccc(NCC(O)c3cccc(C(F)(F)F)c3)n2)cc1` (configuration not stated): 680 nM; for `c1ccc2c(CNc3ccnc(NCc4cccc5ccccc45)n3)cccc2c1`: 560 nM.
The figure for `CC(C)(C)CN1C(=O)C(c2ccccc2)(c2ccccc2)N=C1N` is 520 nM.
Compound `OC(CNc1ccnc(Nc2cccc(OCCCN3CCOCC3)c2)n1)c1ccccc1` (configuration not stated) came in with an IC50 of 920 nM.
The same measure for `CC(C)(C)c1cc([N+](=O)[O-])cc(C(=O)Nc2ccccc2C(F)(F)F)c1O`: 650 nM.
In the case of `CCC(COCc1ccc(Cl)cc1)N(C)CCN(C)C(CC)COCc1ccc(Cl)cc1` (configuration not stated), the IC50 was determined as 1060 nM.
The compound `CC(C)Cn1cc(C2CCN(CCN3CCC(CNC(=O)c4ccc(NC(=O)c5ccc(Cl)cc5)cc4)CC3)CC2)c2ccccc21` registered an IC50 of 250 nM.
The same measure for `Cc1ccn2c(N(Cc3ccccc3)C(=O)c3ccc(Cl)c(Cl)c3)c(-c3ccccc3)nc2c1`: 990 nM; for `CC(C)(C)c1ccc(NC(=O)c2cccc(CN3CCCN(Cc4cccc(Cl)c4)CC3)c2)cc1`: 1000 nM.
The compound `Nc1ncc(-c2ccc3[nH]ccc3c2)c2ccc(-c3ccncc3)cc12` displayed an IC50 of 540 nM.
`Cc1cc(C)c(-c2n[nH]c3c2C(c2cccc(Cl)c2)N(Cc2ccco2)C3=O)c(O)c1` (configuration not stated) showed an IC50 of 1010 nM.
As for `CCCCCCCCCCNCC(O)c1ccc(O)c(C(=O)OC)c1` (configuration not stated), the IC50 was 720 nM.
The figure for `CC(=O)Nc1cccc(C(=O)Nc2cccc(-c3ccc(-c4nc5c(C)cccc5[nH]4)cc3)c2)c1` is 910 nM; for `FC(F)(F)c1ccc(NC(=S)N2CCC(CCN3CCC(c4c[nH]c5ccccc45)CC3)CC2)cc1` it is 890 nM.
In the case of `Cc1ccccc1C1CCN(C2CCC(NC(=O)C3=Cc4cc(Cl)ccc4OC3)CC2)CC1` (configuration not stated), the IC50 was 890 nM.
The figure for `CO/C(=C\C=C\c1cc2cc(Cl)c(Cl)cc2[nH]1)C(=O)NC1CCN(CCNc2ccccc2)CC1` is 260 nM; for `Cc1[nH]c2ccc(NS(C)(=O)=O)cc2c1C1CCN(CC2CCN(C(=O)/C=C/c3ccc(Cl)c(Cl)c3)CC2)CC1` it is 680 nM; for `CN(C)CCOc1cc(NC(=O)Nc2ccc(Cl)cc2C(F)(F)F)ccc1I` it is 930 nM.
In turn, `COc1cc2nc(N3CCC(CNC(=O)/C=C/c4ccccc4F)CC3)nc(N)c2cc1OC` registered an IC50 of 580 nM.
Compound `CN(C)CCCOc1ccc(-c2csc(NC(N)=NCc3ccccc3)n2)cc1` registered an IC50 of 280 nM.
`CCN(CC)c1ccc(C(c2ccc(N(CC)CC)cc2)c2cccc([N+](=O)[O-])c2)cc1` came in with an IC50 of 380 nM.
The figure for `CCCCNc1nc(NCCCC)c2c(C)c(Cc3ccccc3)c(NCCCC)nc2n1` is 890 nM.
The same measure for `O=C(NCCCNc1ccc2ccccc2n1)c1cc2c(Cl)cc(Cl)cc2[nH]1`: 600 nM; for `CN(C)CCN(C)Cc1ccc(-c2cccc(NC(=O)c3cccc(C#N)c3)c2)cc1`: 1180 nM.
`CN1C(C)(C)CC(NC(=O)c2ccc(-c3nc4ccc(Cl)cc4[nH]3)cc2)CC1(C)C` showed an IC50 of 990 nM.

Values taken from PubChem BioAssay AID2305 (GlaxoSmithKline (GSK), 2010).
